PMC9217999 (Targeted Oncology, 2022)

Legend:
[1] = test system: pediatric cancer cell lines; conditions: ref Roche data on file; cited from earlier work
[2] = test system: unresectable/metastatic BRAF V600E/K-mutated melanoma; conditions: combined with vemurafenib versus vemurafenib plus placebo, p < 0.0001; cited from earlier work
[3] = cited from earlier work
[4] = Cobimetinib plasma pharmacokinetics in iMATRIX-cobi; format: in vivo, human; conditions: for Cmax: human, plasma, oral, 1 mg/kg, Steady state Cmax, geometric mean (%CV), 1.0 mg/kg suspension

O=C(c1ccc(F)c(F)c1Nc1ccc(I)cc1F)N1CC(O)([C@@H]2CCCCN2)C1 [cobimetinib]
Cytotoxic effects [1]: Cytotoxic effects | Investigator-assessed progression-free survival (PFS) [2]: significantly improved | Objective response rate (ORR) [2]: significantly improved | Mean accumulation ratio in adults [3]: 2.4 fold | Cmax ([4]; dose escalation (n = 8)): 179 ng/mL | Cmax ([4]; expansion (n = 9)): 116 ng/mL | Exposure-safety relationships ([4]; pediatric patients): no exposure-safety relationships
